Experimental data published in patent US20060264442A1, “Methods for the treatment of ocular and neurodegenerative conditions in a mammal” (Allergan, Inc., priority 2005, published 2006).

How the values were obtained:
retinal ganglion cells [1] = experiment: Partial optic nerve (ON) injury model, retinal ganglion cell count; type: in vivo, Sprague Dawley rats; details: for RGC survival / protective effect: count at twelve days
Protocol: (§1) All procedures were conducted following AACUC protocols. Rats were anesthetized by intramuscular administration of Ketamine/Xylazine/Acepromazine/Saline cocktail, 5/2.5/1/1.5, milliliters respectively, at 1 ml/Kg.
Sprague Dawley rats weighing 300-350 g were used in this experiment. They were anesthetized with the above anesthetic cocktail and ON injury was applied. […] The tissues around the optic nerve were kept away from the optic nerve using jaw opening forceps. Calibrated forceps was put around the nerve about 3 to 4 mm from the globe and held for 30 seconds. The forceps were then removed, and the eyes treated with topical antibiotics at the site of incision. Drugs were then administered at selected doses via IP. Control animals received vehicle.
(§2) The effect of ON injury and elevated IOP on ganglion cells was determined by evaluating ganglion cell loss in whole mounted retinas. At the end of twelve days for ON injured and three months for COHT animals the ganglion cells were labeled by retrograde transport of Dextran Tetramethyl Rhodamine (DTMR, Molecular Probes, OR). […] A longitudinal cut (<1 mm) was made at about 3-4 mm distal from the globe. The optic nerve was sectioned and DTMR crystals were applied at the cut end. Twenty four hours after labeling the animals were euthanized and the eyes enucleated and fixed for 2 hours with 4% paraformaldehyde, then the retinas were removed and whole mounted. Cell counts were done using a Nikon microscope under fluorescent light with Rhodamine filter at 400×. Eight to sixteen regions were counted. Ganglion cell loss was calculated as percentage loss compared to unlasered control. Percent protection was calculated by comparing drug treated to vehicle treated eyes. Statistical analysis was done using two-tail student's t-test.

retinal ganglion cells [2] = experiment: COHT model, retinal ganglion cell count; type: in vivo, Wistar rats
Protocol: (§3) Wistar rats weighing 400-475 grams were used. The rats were anesthetized and ocular hypertension was induced by laser photocoagulation of the outflow pathway (mainly episcleral and limbal veins) using a Coherent Argon Laser (Coherent Novus 2000). The number of spots was approximately 150 after two laser treatments with one week interval. IOP was measured using Tono-Pen XL (Mentor O&O). Measurements were done prior to laser treatments to determine baseline and subsequent readings were done weekly.
as §2

[3] = Chronic ocular hypertension (COHT) model, IOP measurement; type: in vivo, Wistar rats; details: topical 0.015% twice a day for 90 days, compared to vehicle treated eyes
Protocol: as §1, §3
In this model prazosin was tested after topical application of 0.015% twice a day for 90 days. […] The IOP level reached a steady state after 40 days and it was maintained for the rest of the experimental period.

[4] = COHT model, ERG evaluation of retinal function; type: in vivo, Wistar rats; details: topical 0.015% twice a day, at the end of 90 days
Protocol: as §3
Electroretinographic evaluation of the retina was done only to OHT animals. The retinal function was measured 90 days after first laser treatment and prior retinal labeling. LKC system was used with the following parameters: low and high cut filters 0.3 and 500 Hz respectively, number of runs per sample were 10, flash intensity was −30, −20, −10 and −4 dB, Notch filter was off. Data analysis including OP's extraction from flash ERG was done using the system's software and noise was filtered prior calculation. Data represents the average of 5 animals.
At the end of 90 days retinal function was measured using electroretinography (ERG). […] Similarly the oscillatory potential responses were also preserved by prazosin treatment (FIG. 6).

## COc1cc2nc(N3CCN(C(=O)C4CCCO4)CC3)nc(N)c2cc1OC (stereo not drawn) [Terazosine, terazosin]
Retinal ganglion cells [1]; 0.1 μg/kg IP
  RGC protection: Protection was observed
Retinal ganglion cells [1]; 1.0 μg/kg IP
  RGC protection: maximum effect
Retinal ganglion cells [1]; 10 μg/kg IP
  RGC survival / protective effect: no effect

## COc1ccccc1N1CCN(CCCNc2c(C)c(=O)n(C)c(=O)n2C)CC1 [5-methyl-Urapedil, 5-methylurapadil]
Retinal ganglion cells [1]; 10 μg/kg IP
  RGC survival / protective effect: no protective effect

## Brc1c(NC2=NCCN2)ccc2nccnc12 [Brimonidine, brimonidine]
Retinal ganglion cells [1]; 100 μg/kg IP
  RGC survival / protective effect: protective action of Prazosine is similar to that of Brimonidine
Retinal ganglion cells [2]; dose not given
  RGC protection in COHT model (comparison in words): comparable to what we have observed with Brimonidine

## COc1cc2nc(N3CCN(C(=O)c4ccco4)CC3)nc(N)c2cc1OC [Prazosine, prazosin]
[3]
  Elevation of IOP: attenuated the elevation of IOP
Retinal ganglion cells [1]; 10 μg/kg IP
  RGC survival / protective effect: almost two fold increase in RGC survival
Retinal ganglion cells [2]; 0.015% topical, three months of IOP elevation
  Protection of RGC compared to vehicle treated group: 46%
Retinal ganglion cells [2]; 0.015% topical, three months of IOP elevation, loss compared to unlasered control
  RGC decrease: 20%
[4]
  ERG A and B wave amplitudes: In vehicle treated animals both A and B wave amplitudes were smaller than those treated with prazosin
  Oscillatory potential responses: preserved
